Paper PMC10383271

Tests used:
[1] = target: human serum albumin (HSA) (Homo sapiens, UniProt P02768); assay: Binding site study with HSA, replacement of markers DanG and DanF (fluorescence); design: purchased Sigma-Aldrich Chemie GmbH; conditions: for percentage of the replacement of DanG: drug site 1 marker; for percentage of the replacement of DanF: drug site 2 marker
Excerpt: HSA, the most important transport protein in our body, has two main binding sites with high affinity to drug binding: drug site 1 in subdomain IIA and drug site 2 in subdomain IIIA [71, 72, 73]. To determine which site the test compounds bind to, the analysis with markers having an affinity for one of the binding sites can be used. Dansylated amino acids turn out to be good for this type of research. In our study, we used dansyl-L-glycine (DanG) and dansyl-L-phenylalanine (DanF) as drug site 1 and drug site 2 markers, respectively. DanG and DanF bound with HSA show the phenomenon of fluorescence at the excitation wave equal to 350 nm. Under these conditions, the fluorescence spectrum is recorded with a band maximum at approximately 510 nm for DanG and 505 nm for DanF, respectively. We conducted a study in which we introduced successive portions of the analyzed compounds to a solution containing equimolar amounts of HSA and each marker. We increased the molar ratio of the reactants from 1:1:0 to 1:1:10. The intensity of fluorescence decreases during the addition of successive portions of the analyzed compounds.
Based on the obtained results, it is possible to calculate the percentage of replacement of DanG or DanF in the complex with albumin by the tested compounds and thus compare the effectiveness of this reaction for all analyzed molecules. (6) percentage of replacement=F0−F/F0·100%
Binding site studies were conducted using fluorescence measurements. Spectra were recorded on Cary Eclipse 500 spectrophotometer (Agilent, Santa Clara, CA, USA) at room temperature with a 10 mm path length. HSA and AAG solutions were prepared in phosphate buffer, giving concentrations equal to 1 × 10^−6 M. The concentrations of dansylated-L-glycine (DanG), dansylated-L-phenylalanine (DanF), and quinaldine red (QR) were 1 × 10^−3 M. The densylated amino acids and QR solutions were prepared in ethanol. For the HSA-dansylated amino acids studies, the excitation wavelength was equal to 350 nm, while for the AAG-QR system, it was 500 nm, respectively. Then, 3 mL of protein was mixed with 3 µL of marker solution, giving a molar ratio of 1 to 1. Next, successive portions of the analyzed compounds were added to the mixtures prepared in this way, obtaining the appropriate protein-to-compound molar ratios, amounting to 1:0, 1:0.5, 1:1, 1:2, 1:3, 1:4, 1:5, and 1:10 for the HSA-densylated amino acids systems, and 1:0, 1:0.5, 1:1, 1:2, 1:3, 1:4, 1:6, 1:8, and 1:10 for the AAG-QR systems.

[2] = system: alpha-1-acid glycoprotein (AAG); assay: Fluorescence quenching titration of AAG
Experimental: Aex is the absorbance at excitation wavelengths, and Aem is the absorbance at emission wavelengths.
The correlation between the stability constant of complexes Kb and standard thermodynamic parameters enthalpy change (ΔH°), and entropy change (ΔS°) was determined by the van’t Hoff Equation (4):(4) logKb=−∆H^°/RT+∆S^°/R where R is the universal gas constant; the free energy change (ΔG°) can be calculated by following Equation (5):(5) ∆G^°=∆H^°−T∆S^°=−RTlnKb
The fluorescence study was performed on a Cary Eclipse 500 spectrophotometer (Agilent, Santa Clara, CA, USA). The spectra were recorded in a cuvette with 10 mm path length at an emission range of 300–500 nm, and the excitation wavelength was 280 nm.

15-LOX = target: T1, 15-LOX (Glycine max, UniProt P08170); assay: 15-LOX inhibition, Cayman's Lipoxygenase Inhibitor Screening Assay Kit
T1 sequence (P08170 1-839): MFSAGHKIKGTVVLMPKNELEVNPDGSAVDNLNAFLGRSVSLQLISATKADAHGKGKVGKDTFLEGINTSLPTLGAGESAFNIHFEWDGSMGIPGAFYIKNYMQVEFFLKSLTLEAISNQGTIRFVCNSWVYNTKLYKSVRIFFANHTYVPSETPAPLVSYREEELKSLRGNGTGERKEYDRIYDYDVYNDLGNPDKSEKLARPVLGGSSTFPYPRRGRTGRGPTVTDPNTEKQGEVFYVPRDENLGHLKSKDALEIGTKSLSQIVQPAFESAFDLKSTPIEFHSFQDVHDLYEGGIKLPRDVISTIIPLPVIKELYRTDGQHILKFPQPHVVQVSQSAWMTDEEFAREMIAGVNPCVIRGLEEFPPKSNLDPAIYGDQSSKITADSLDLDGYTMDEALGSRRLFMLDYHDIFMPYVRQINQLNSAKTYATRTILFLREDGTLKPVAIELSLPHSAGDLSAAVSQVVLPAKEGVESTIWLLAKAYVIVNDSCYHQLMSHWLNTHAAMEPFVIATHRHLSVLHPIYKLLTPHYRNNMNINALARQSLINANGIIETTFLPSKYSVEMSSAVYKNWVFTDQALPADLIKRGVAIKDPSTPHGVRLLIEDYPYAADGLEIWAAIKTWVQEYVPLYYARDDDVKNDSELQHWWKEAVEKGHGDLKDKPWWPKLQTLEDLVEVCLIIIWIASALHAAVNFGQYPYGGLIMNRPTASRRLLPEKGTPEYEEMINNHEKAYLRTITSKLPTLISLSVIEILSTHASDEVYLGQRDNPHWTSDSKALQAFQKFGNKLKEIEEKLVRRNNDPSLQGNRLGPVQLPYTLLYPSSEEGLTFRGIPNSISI

COX-2 = target: T2, COX-2 (Homo sapiens, UniProt P35354); assay: COX-2 inhibition, Cayman's COX Colorimetric Inhibitor Screening Assay Kit; conditions: for Selectivity Index (SI): COX-2 IC50/COX-1 IC50
T2 sequence (P35354 18-604): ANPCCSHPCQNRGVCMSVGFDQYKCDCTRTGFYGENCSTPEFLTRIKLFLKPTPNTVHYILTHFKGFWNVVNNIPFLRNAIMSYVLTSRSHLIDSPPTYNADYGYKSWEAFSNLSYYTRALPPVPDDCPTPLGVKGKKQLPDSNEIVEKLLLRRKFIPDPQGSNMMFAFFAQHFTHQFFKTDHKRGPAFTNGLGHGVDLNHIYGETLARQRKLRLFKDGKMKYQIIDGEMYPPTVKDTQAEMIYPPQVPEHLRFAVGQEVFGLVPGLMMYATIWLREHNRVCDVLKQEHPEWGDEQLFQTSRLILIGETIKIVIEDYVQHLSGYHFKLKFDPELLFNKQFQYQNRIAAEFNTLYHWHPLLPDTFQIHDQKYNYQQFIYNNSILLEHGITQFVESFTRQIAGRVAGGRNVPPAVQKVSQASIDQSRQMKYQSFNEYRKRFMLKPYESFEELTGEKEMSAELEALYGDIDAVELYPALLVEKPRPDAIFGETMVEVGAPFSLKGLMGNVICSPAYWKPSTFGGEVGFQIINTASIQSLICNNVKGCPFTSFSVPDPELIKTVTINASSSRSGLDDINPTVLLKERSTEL

[3] = HSA:marker:compound molar ratio 1:1:0.5
[4] = HSA:marker:compound molar ratio 1:1:1
[5] = HSA:marker:compound molar ratio 1:1:2
[6] = HSA:marker:compound molar ratio 1:1:3
[7] = HSA:marker:compound molar ratio 1:1:4
[8] = HSA:marker:compound molar ratio 1:1:5
[9] = HSA:marker:compound molar ratio 1:1:10

Sequence of human serum albumin (HSA) (P02768 25-609): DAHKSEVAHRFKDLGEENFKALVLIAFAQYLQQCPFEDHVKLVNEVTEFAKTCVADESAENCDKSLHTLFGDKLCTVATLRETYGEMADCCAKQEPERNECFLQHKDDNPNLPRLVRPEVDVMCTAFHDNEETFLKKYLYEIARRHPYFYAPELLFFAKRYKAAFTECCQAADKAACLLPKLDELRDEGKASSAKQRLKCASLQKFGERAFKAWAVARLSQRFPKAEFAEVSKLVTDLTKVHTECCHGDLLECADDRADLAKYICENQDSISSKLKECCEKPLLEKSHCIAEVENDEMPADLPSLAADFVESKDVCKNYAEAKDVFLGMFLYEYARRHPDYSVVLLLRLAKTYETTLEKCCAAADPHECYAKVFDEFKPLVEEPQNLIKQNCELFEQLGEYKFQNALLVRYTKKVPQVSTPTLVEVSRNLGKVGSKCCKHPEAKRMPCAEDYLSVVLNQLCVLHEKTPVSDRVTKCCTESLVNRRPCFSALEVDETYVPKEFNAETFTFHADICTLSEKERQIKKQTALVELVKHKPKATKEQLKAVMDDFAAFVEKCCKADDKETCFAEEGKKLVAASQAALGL

Structure (SMILES) | percentage of the replacement of DanG [1, 3] [%] | percentage of the replacement of DanG [1, 4] [%] | percentage of the replacement of DanG [1, 5] [%] | percentage of the replacement of DanG [1, 6] [%] | percentage of the replacement of DanG [1, 7] [%] | percentage of the replacement of DanG [1, 8] [%] | percentage of the replacement of DanG [1, 9] [%] | percentage of the replacement of DanF [1, 3] [%] | percentage of the replacement of DanF [1, 4] [%] | percentage of the replacement of DanF [1, 5] [%] | percentage of the replacement of DanF [1, 6] [%] | percentage of the replacement of DanF [1, 7] [%] | percentage of the replacement of DanF [1, 8] [%] | percentage of the replacement of DanF [1, 9] [%] | Ksv ([2]; T 297 K) | kq ([2]; T 297 K) | logKb ([2]; T 297 K) | Ksv ([2]; T 303 K) | kq ([2]; T 303 K) | logKb ([2]; T 303 K) | further results
Cc1c2c(OCC(=O)N/N=C/c3ccccc3)nn(C)c(=O)c2c(C)n1-c1cccc(Cl)c1 [Compound 5c, N-[(Z/E)-benzylideneamino]-2-[6-(3-chlorophenyl)-3,5,7-trimethyl-4-oxo-pyrrolo[3,4-d]pyridazin-1-yl]oxyacetamide] | 2.9 | 2.9 | 4.3 | 5.0 | 5.7 | 6.4 | 11.4 | 6.2 | 9.5 | 13.8 | 18.1 | 19.0 | 21.0 | 23.3 | 15.87± 2.41 ·10^4 dm^3·mol^−1 | 15.87 ·10^12 dm^3·mol^−1·s^−1 | 2.64 ± 0.16 | 14.60 ± 2.05 ·10^4 dm^3·mol^−1 | 14.60 ·10^12 dm^3·mol^−1·s^−1 | 2.47 ± 0.17 | Ksv ([2]; T 308 K): 9.99 ± 1.60 ·10^4 dm^3·mol^−1; kq ([2]; T 308 K): 9.99 ·10^12 dm^3·mol^−1·s^−1; logKb ([2]; T 308 K): 2.31 ± 0.20; IC50 (15-LOX): 12.7 ± 0.04 µM; IC50 (COX-2): 23.6 ± 2.5 µM; Selectivity Index (SI) (COX-2): 0.23
CCCCn1c(C)c2c(OCC(=O)N/N=C/c3ccccc3)nn(C)c(=O)c2c1C [Compound 5a, N-[(Z/E)-benzylideneamino]-2-(6-butyl-3,5,7-trimethyl-4-oxo-pyrrolo[3,4-d]pyridazin-1-yl)oxy-acetamide] | 0.7 | 0.7 | 3.7 | 5.2 | 6.7 | 8.5 | 15.7 | 2.3 | 2.7 | 5.9 | 9.0 | 11.7 | 14.9 | 28.8 | 9.04 ± 0.16 ·10^4 dm^3·mol^−1 | 9.04 ·10^12 dm^3·mol^−1·s^−1 | 1.82 ± 0.12 | 3.15 ± 0.41 ·10^4 dm^3·mol^−1 | 3.15 ·10^12 dm^3·mol^−1·s^−1 | 1.73 ± 0.27 | Ksv ([2]; T 308 K): 1.11 ± 0.16 ·10^4 dm^3·mol^−1; kq ([2]; T 308 K): 1.11 ·10^12 dm^3·mol^−1·s^−1; logKb ([2]; T 308 K): 1.62 ± 0.26; IC50 (15-LOX): 12.9 ± 0.06 µM; IC50 (COX-2): 17.2 ± 1.4 µM; Selectivity Index (SI) (COX-2): 0.21
Cc1c2c(OCC(=O)N/N=C/c3ccccc3)nn(C)c(=O)c2c(C)n1-c1ccccc1 [Compound 5b, N-[(Z/E)-benzylideneamino]-2-(3,5,7-trimethyl-4-oxo-6-phenyl-pyrrolo[3,4-d]pyridazin-1-yl)oxy-acetamide] | 0 | 0.7 | 5.6 | 7.7 | 9.8 | 11.2 | 14.0 | 5.2 | 9.1 | 15.7 | 20.4 | 23.5 | 27.4 | 32.2 | 10.41 ± 1.08 ·10^4 dm^3·mol^−1 | 10.41 ·10^12 dm^3·mol^−1·s^−1 | 2.71 ± 0.21 | 11.41 ± 1.42 ·10^4 dm^3·mol^−1 | 11.41 ·10^12 dm^3·mol^−1·s^−1 | 2.53 ± 0.15 | Ksv ([2]; T 308 K): 8.39 ± 1.24 ·10^4 dm^3·mol^−1; kq ([2]; T 308 K): 8.39 ·10^12 dm^3·mol^−1·s^−1; logKb ([2]; T 308 K): 2.35 ± 0.12; IC50 (15-LOX): 13.5 ± 0.02 µM; IC50 (COX-2): 22.7 ± 1.2 µM; Selectivity Index (SI) (COX-2): 0.25
